Measured values: patent US9944602B2, “Piperidinone herbicides” (E. I. DU PONT DE NEMOURS AND COMPANY, priority 2014, dated 2018)

Columns and labels:
Type in all cases: in vivo
[1] = tested on: kochia (Kochia scoparia); assay: Test A preemergence kochia; settings: 0 to 100 scale, 0 no effect, 100 complete control
Source text: (§1) Seeds of plant species selected from barnyardgrass (Echinochloa crus-galli), kochia (Kochia scoparia), ragweed (common ragweed, Ambrosia elatior), ryegrass, Italian (Italian ryegrass, Lolium multiflorum), crabgrass, large (large crabgrass, Digitaria sanguinalis), foxtail, giant (giant foxtail, Setaria faberii), morningglory (Ipomoea spp.), pigweed (Amaranthus retroflexus), velvetleaf (Abutilon theophrasti), wheat (Triticum aestivum), and corn (Zea mays) were planted into a blend of loam soil and sand and treated preemergence with a directed soil spray using test chemicals formulated in a non-phytotoxic solvent mixture which included a surfactant.
(§2) At the same time, plants selected from these crop and weed species and also blackgrass (Alopecurus myosuroides), and galium (catchweed bedstraw, Galium aparine) were planted in pots containing the same blend of loam soil and sand and treated with postemergence applications of test chemicals formulated in the same manner. Plants ranged in height from 2 to 10 cm and were in the one- to two-leaf stage for the postemergence treatment. Treated plants and untreated controls were maintained in a greenhouse for approximately 10 d, after which time all treated plants were compared to untreated controls and visually evaluated for injury. Plant response ratings, summarized in Table A, are based on a 0 to 100 scale where 0 is no effect and 100 is complete control. A dash (-) response means no test result.

[2] = tested on: barnyardgrass (Echinochloa crus-galli); assay: Test B flooded paddy test barnyardgrass; settings: Table B, Flood, scale 0 to 100
Protocol: (§3) Plant species in the flooded paddy test selected from rice (Oryza sativa), sedge, umbrella (small-flower umbrella sedge, Cyperus difformis), ducksalad (Heteranthera limosa), and barnyardgrass (Echinochloa crus-galli) were grown to the 2-leaf stage for testing. At the time of treatment, test pots were flooded to 3 cm above the soil surface, treated by application of test compounds directly to the paddy water, and then maintained at that water depth for the duration of the test. Treated plants and controls were maintained in a greenhouse for 13 to 15 d, after which time all species were compared to controls and visually evaluated. […] A dash (-) response means no test result.

[3] = tested on: sedge, umbrella (small-flower umbrella sedge, Cyperus difformis); assay: Test B flooded paddy test sedge, umbrella; settings: Table B, Flood, scale 0 to 100
Protocol: as §3

[4] = tested on: galium (catchweed bedstraw, Galium aparine); assay: Test A postemergence galium; settings: 0 to 100 scale, 0 is no effect, 100 is complete control
Source text: as §1, §2

[5] = tested on: blackgrass (Alopecurus myosuroides); assay: Test A postemergence blackgrass; settings: 0 to 100 scale, 0 is no effect, 100 is complete control
Source text: as §1, §2

[6] = tested on: kochia (Kochia scoparia); assay: Test A postemergence kochia; settings: 0 to 100 scale, 0 is no effect, 100 is complete control
Source text: as §1, §2

[7] = tested on: ragweed (common ragweed, Ambrosia elatior); assay: Test A preemergence ragweed; settings: 0 to 100 scale, 0 no effect, 100 complete control
Source text: as §1, §2

[8] = tested on: foxtail, giant (giant foxtail, Setaria faberii); assay: Test A postemergence foxtail, giant; settings: 0 to 100 scale, 0 is no effect, 100 is complete control
Source text: as §1, §2

[9] = tested on: pigweed (Amaranthus retroflexus); assay: Test A preemergence pigweed; settings: 0 to 100 scale, 0 no effect, 100 complete control
Source text: as §1, §2

[10] = tested on: ragweed (common ragweed, Ambrosia elatior); assay: Test A postemergence ragweed; settings: 0 to 100 scale, 0 is no effect, 100 is complete control
Source text: as §1, §2

[11] = tested on: barnyardgrass (Echinochloa crus-galli); assay: Test A postemergence barnyardgrass; settings: 0 to 100 scale, 0 is no effect, 100 is complete control
Source text: as §1, §2

[12] = tested on: ducksalad (Heteranthera limosa); assay: Test B flooded paddy test ducksalad; settings: Table B, Flood, scale 0 to 100
Protocol: as §3

[13] = tested on: wheat (Triticum aestivum); assay: Test A postemergence wheat; settings: 0 to 100 scale, 0 is no effect, 100 is complete control
Source text: as §1, §2

[14] = tested on: ryegrass, Italian (Italian ryegrass, Lolium multiflorum); assay: Test A preemergence ryegrass, Italian; settings: 0 to 100 scale, 0 no effect, 100 complete control
Source text: as §1, §2

[15] = tested on: barnyardgrass (Echinochloa crus-galli); assay: Test A preemergence barnyardgrass; settings: 0 to 100 scale, 0 no effect, 100 complete control
Source text: as §1, §2

[16] = tested on: corn (Zea mays); assay: Test A postemergence corn; settings: 0 to 100 scale, 0 is no effect, 100 is complete control
Source text: as §1, §2

[17] = tested on: rice (Oryza sativa); assay: Test B flooded paddy test rice; settings: Table B, Flood, scale 0 to 100
Protocol: as §3

[18] = tested on: ryegrass, Italian (Italian ryegrass, Lolium multiflorum); assay: Test A postemergence ryegrass, Italian; settings: 0 to 100 scale, 0 is no effect, 100 is complete control
Source text: as §1, §2

[19] = tested on: foxtail, giant (giant foxtail, Setaria faberii); assay: Test A preemergence foxtail, giant; settings: 0 to 100 scale, 0 no effect, 100 complete control
Source text: as §1, §2

[20] = tested on: pigweed (Amaranthus retroflexus); assay: Test A postemergence pigweed; settings: 0 to 100 scale, 0 is no effect, 100 is complete control
Source text: as §1, §2

| SMILES | Kochia plant response rating ([1]; 125 g ai/ha) | Kochia plant response rating ([1]; 500 g ai/ha) | Plant response rating, Galium ([4]; 125 g ai/ha) | Plant response rating, Galium ([4]; 500 g ai/ha) | Plant response rating, Blackgrass ([5]; 125 g ai/ha) | Plant response rating, Blackgrass ([5]; 500 g ai/ha) | Plant response rating, Kochia ([6]; 125 g ai/ha) | Plant response rating, Kochia ([6]; 500 g ai/ha) | Ragweed plant response rating ([7]; 125 g ai/ha) | Ragweed plant response rating ([7]; 500 g ai/ha) | Plant response rating, Foxtail, Giant ([8]; 125 g ai/ha) | Plant response rating, Foxtail, Giant ([8]; 500 g ai/ha) | Pigweed plant response rating ([9]; 125 g ai/ha) | Pigweed plant response rating ([9]; 500 g ai/ha) | Plant response rating, Ragweed ([10]; 125 g ai/ha) | Plant response rating, Ragweed ([10]; 500 g ai/ha) | Plant response rating, Barnyardgrass ([11]; 125 g ai/ha) | Plant response rating, Barnyardgrass ([11]; 500 g ai/ha) | Plant response rating, Wheat ([13]; 125 g ai/ha) | Plant response rating, Wheat ([13]; 500 g ai/ha) | also measured |
| --- | --- | --- | --- | --- | --- | --- | --- | --- | --- | --- | --- | --- | --- | --- | --- | --- | --- | --- | --- | --- | --- |
| O=C1NCCC(c2cccc(OC(F)(F)F)c2)C1C(=O)Nc1ccccc1C(F)(F)F (racemic) [Compound 38] | 0 | 0 | 0 | 0 | 0 | 0 | 0 | 0 | 0 | 0 | 0 | 60 | 0 | 0 | 0 | 0 | 50 | 70 | 0 | 0 | Plant response rating ([2]; 250 g ai/ha): 35; Plant response rating ([3]; 250 g ai/ha): 0; Plant response rating ([12]; 250 g ai/ha): 85; Ryegrass, Italian plant response rating ([14]; 125 g ai/ha): 0; Ryegrass, Italian plant response rating ([14]; 500 g ai/ha): 0; Barnyardgrass plant response rating ([15]; 125 g ai/ha): 30; Barnyardgrass plant response rating ([15]; 500 g ai/ha): 80; Plant response rating, Corn ([16]; 125 g ai/ha): 0; Plant response rating, Corn ([16]; 500 g ai/ha): 0; Plant response rating ([17]; 250 g ai/ha): 0; Plant response rating, Ryegrass, Italian ([18]; 125 g ai/ha): 0; Plant response rating, Ryegrass, Italian ([18]; 500 g ai/ha): 0; Foxtail, Giant plant response rating ([19]; 125 g ai/ha): 50; Foxtail, Giant plant response rating ([19]; 500 g ai/ha): 80; Plant response rating, Pigweed ([20]; 125 g ai/ha): 0; Plant response rating, Pigweed ([20]; 500 g ai/ha): 0 |
| O=C1NCCC(c2cccc(OC(F)(F)F)c2)C1C(=O)Nc1cccc(F)c1F (racemic) [Compound 39] | 0 | 0 | 0 | 0 | 0 | 60 | 0 | 0 | 0 | 0 | 70 | 90 | 0 | 10 | 0 | 0 | 80 | 80 | 0 | 30 | Plant response rating ([2]; 250 g ai/ha): 65; Plant response rating ([3]; 250 g ai/ha): 0; Plant response rating ([12]; 250 g ai/ha): 100; Ryegrass, Italian plant response rating ([14]; 125 g ai/ha): 30; Ryegrass, Italian plant response rating ([14]; 500 g ai/ha): 70; Barnyardgrass plant response rating ([15]; 125 g ai/ha): 80; Barnyardgrass plant response rating ([15]; 500 g ai/ha): 90; Plant response rating, Corn ([16]; 125 g ai/ha): 0; Plant response rating, Corn ([16]; 500 g ai/ha): 50; Plant response rating ([17]; 250 g ai/ha): 0; Plant response rating, Ryegrass, Italian ([18]; 125 g ai/ha): 0; Plant response rating, Ryegrass, Italian ([18]; 500 g ai/ha): 50; Foxtail, Giant plant response rating ([19]; 125 g ai/ha): 90; Foxtail, Giant plant response rating ([19]; 500 g ai/ha): 90; Plant response rating, Pigweed ([20]; 125 g ai/ha): 0; Plant response rating, Pigweed ([20]; 500 g ai/ha): 0 |
| O=C1NCCC(c2cccc(OC(F)F)c2)C1C(=O)Nc1ccc(F)c(F)c1F (racemic) [Compound 44] | 0 | 0 | 0 | 20 | 0 | 20 | 0 | 0 | 0 | 30 | 30 | 80 | 0 | 0 | 0 | 0 | 20 | 80 | 0 | 0 | Plant response rating ([2]; 500 g ai/ha): 60; Plant response rating ([3]; 500 g ai/ha): 0; Plant response rating ([12]; 500 g ai/ha): 85; Ryegrass, Italian plant response rating ([14]; 125 g ai/ha): 0; Ryegrass, Italian plant response rating ([14]; 500 g ai/ha): 0; Barnyardgrass plant response rating ([15]; 125 g ai/ha): 60; Barnyardgrass plant response rating ([15]; 500 g ai/ha): 90; Plant response rating, Corn ([16]; 125 g ai/ha): 0; Plant response rating, Corn ([16]; 500 g ai/ha): 0; Plant response rating ([17]; 500 g ai/ha): 0; Plant response rating, Ryegrass, Italian ([18]; 125 g ai/ha): 0; Plant response rating, Ryegrass, Italian ([18]; 500 g ai/ha): 20; Foxtail, Giant plant response rating ([19]; 125 g ai/ha): 80; Foxtail, Giant plant response rating ([19]; 500 g ai/ha): 90; Plant response rating, Pigweed ([20]; 125 g ai/ha): 0; Plant response rating, Pigweed ([20]; 500 g ai/ha): 0 |
| O=C1NCCC(c2cccc(OC(F)F)c2)C1C(=O)Nc1ccccc1F (racemic) [Compound 45] | 0 | 0 | 0 | 0 | 0 | 20 | 0 | 0 | 0 | 0 | 0 | 50 | 0 | 0 | 0 | 0 | 0 | 60 | 0 | 0 | Plant response rating ([2]; 500 g ai/ha): 0; Plant response rating ([3]; 500 g ai/ha): 0; Plant response rating ([12]; 500 g ai/ha): 50; Ryegrass, Italian plant response rating ([14]; 125 g ai/ha): 0; Ryegrass, Italian plant response rating ([14]; 500 g ai/ha): 0; Barnyardgrass plant response rating ([15]; 125 g ai/ha): 20; Barnyardgrass plant response rating ([15]; 500 g ai/ha): 70; Plant response rating, Corn ([16]; 125 g ai/ha): 0; Plant response rating, Corn ([16]; 500 g ai/ha): 0; Plant response rating ([17]; 500 g ai/ha): 0; Plant response rating, Ryegrass, Italian ([18]; 125 g ai/ha): 0; Plant response rating, Ryegrass, Italian ([18]; 500 g ai/ha): 0; Foxtail, Giant plant response rating ([19]; 125 g ai/ha): 40; Foxtail, Giant plant response rating ([19]; 500 g ai/ha): 80; Plant response rating, Pigweed ([20]; 125 g ai/ha): 0; Plant response rating, Pigweed ([20]; 500 g ai/ha): 0 |
| O=C1NCCC(c2cccc(OC(F)F)c2)C1C(=O)Nc1cccc(F)c1F (racemic) [Compound 46] | 0 | 0 | 0 | 0 | 0 | 40 | 0 | 0 | 0 | 0 | 20 | 80 | 0 | 0 | 0 | 0 | 60 | 90 | 0 | 50 | Plant response rating ([2]; 500 g ai/ha): 65; Plant response rating ([3]; 500 g ai/ha): 0; Plant response rating ([12]; 500 g ai/ha): 100; Ryegrass, Italian plant response rating ([14]; 125 g ai/ha): 0; Ryegrass, Italian plant response rating ([14]; 500 g ai/ha): 20; Barnyardgrass plant response rating ([15]; 125 g ai/ha): 50; Barnyardgrass plant response rating ([15]; 500 g ai/ha): 90; Plant response rating, Corn ([16]; 125 g ai/ha): 0; Plant response rating, Corn ([16]; 500 g ai/ha): 50; Plant response rating ([17]; 500 g ai/ha): 0; Plant response rating, Ryegrass, Italian ([18]; 125 g ai/ha): 0; Plant response rating, Ryegrass, Italian ([18]; 500 g ai/ha): 0; Foxtail, Giant plant response rating ([19]; 125 g ai/ha): 90; Foxtail, Giant plant response rating ([19]; 500 g ai/ha): 90; Plant response rating, Pigweed ([20]; 125 g ai/ha): 0; Plant response rating, Pigweed ([20]; 500 g ai/ha): 0 |
